Patent publication US6130228A, “Polycyclic compounds” (priority 1995, dated 2000)
pIC50: −log10 of the molar value. Like-named read-outs stand apart in the source and are kept apart here.

Columns and labels:
[1] = tested on: noradrenaline (NA) uptake; experiment: Monoamine Uptake Inhibition Assay, noradrenaline (synaptosomal preparation); format: biochemical, rat (Sprague Dawley)
Experimental: (§1) One male rat (Sprague Dawley) weighing approx. 200-250 g was sacrificed by cervical dislocation. The brain was dissected out and the cerebellum discarded. The brain was then weighed and 10 ml ice cold sucrose (0.32M) added per gram tissue. […] The pellet was discarded and the supernatant retained (crude synaptosomal preparation).
(§2) All tubes were set up in triplicate. […] 100 μl of the prepared synaptosomal preparation was added to each tube and incubated for 5 minutes in a shaking water bath at 37° C. Any reaction was stopped by plunging the tubes into an ice water bath. ^3 H NA (10^-7 M) or ^3 H 5-HT ([…]) was added to each tube and incubated for 5 minutes in a shaking water bath at 37° C. Any reaction was stopped by plunging the tubes into an ice-water bath. Accumulated monoamines were collected using a Brandell Cell Harvester under mild vacuum. Filters were rinsed (2×) using 4 ml of ice-cold 0.9% saline. Scintillation fluid was added (4 ml/tube). Radioactivity was measured on a scintillation counter.
(§3) Non-specific values were subtracted from total values. The control was taken as 100%. Drug effects were calculated as a percentage of control inhibitor value. A graph of log of drug concentration versus % control was plotted and IC50 values were calculated by interpolation.

5-HT (serotonin) uptake = format: biochemical, rat (Sprague Dawley)
Experimental: as §1, §2, §3

[2] = biological target: T1, Butyrylcholinesterase (BChE) (Equus caballus, UniProt P81908); experiment: biochemical
T1 construct: purchased Sigma c-7512
T1 sequence (P81908 whole entry): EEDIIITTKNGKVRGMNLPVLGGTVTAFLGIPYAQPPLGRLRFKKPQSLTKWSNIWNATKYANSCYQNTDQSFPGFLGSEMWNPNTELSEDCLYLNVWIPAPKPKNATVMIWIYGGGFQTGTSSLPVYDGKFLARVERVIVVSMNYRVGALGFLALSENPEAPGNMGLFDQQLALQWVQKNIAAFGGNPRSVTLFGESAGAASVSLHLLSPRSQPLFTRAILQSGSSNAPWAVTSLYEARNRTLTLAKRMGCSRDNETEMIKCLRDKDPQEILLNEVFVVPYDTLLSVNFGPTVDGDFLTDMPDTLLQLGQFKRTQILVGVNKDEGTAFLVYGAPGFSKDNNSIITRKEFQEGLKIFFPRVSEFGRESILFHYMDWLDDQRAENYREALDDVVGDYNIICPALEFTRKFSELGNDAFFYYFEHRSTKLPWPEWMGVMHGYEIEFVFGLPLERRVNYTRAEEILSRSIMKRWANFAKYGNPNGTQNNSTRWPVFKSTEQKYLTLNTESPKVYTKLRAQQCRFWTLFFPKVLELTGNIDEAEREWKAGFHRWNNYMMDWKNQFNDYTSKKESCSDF
Experimental: The following components were utilised:
Phosphate Buffer (0.1M, pH 7.4)
Made up to 500 ml with distilled H2 O, pH 7.4
1 ml of enzyme solution (i), was incubated with 2 ml PDS for 60 minutes at 0° C.
Components of the assay blank, controls and test solutions are provided below:
0.9 ml phosphate buffer (0.1M, pH 7.4)
0.85 ml phosphate buffer (0.1 M, pH 7.4)
0.05 ml Acetylthiocholine (5.2 mM)
(§4) 0.8 ml phosphate buffer (0.1M, pH 7.4)
Control was taken as 100%. Inhibitor was calculated as a percentage of control. A graph of Log of inhibitor conc. versus % control was plotted and IC50 values calculated by interpolation.

[3] = biological target: T2, Acetylcholinesterase (AChE) (Rattus norvegicus, UniProt P37136); experiment: biochemical; format: biochemical, Male Rats (Sprague Dawley), brain
T2 construct: The brain was removed and homogenised; from tissue; host or cells: rat brain (male Sprague Dawley), Triton X100 detergent supernatant of the EDTA-buffer pellet
T2 sequence (P37136 32-614): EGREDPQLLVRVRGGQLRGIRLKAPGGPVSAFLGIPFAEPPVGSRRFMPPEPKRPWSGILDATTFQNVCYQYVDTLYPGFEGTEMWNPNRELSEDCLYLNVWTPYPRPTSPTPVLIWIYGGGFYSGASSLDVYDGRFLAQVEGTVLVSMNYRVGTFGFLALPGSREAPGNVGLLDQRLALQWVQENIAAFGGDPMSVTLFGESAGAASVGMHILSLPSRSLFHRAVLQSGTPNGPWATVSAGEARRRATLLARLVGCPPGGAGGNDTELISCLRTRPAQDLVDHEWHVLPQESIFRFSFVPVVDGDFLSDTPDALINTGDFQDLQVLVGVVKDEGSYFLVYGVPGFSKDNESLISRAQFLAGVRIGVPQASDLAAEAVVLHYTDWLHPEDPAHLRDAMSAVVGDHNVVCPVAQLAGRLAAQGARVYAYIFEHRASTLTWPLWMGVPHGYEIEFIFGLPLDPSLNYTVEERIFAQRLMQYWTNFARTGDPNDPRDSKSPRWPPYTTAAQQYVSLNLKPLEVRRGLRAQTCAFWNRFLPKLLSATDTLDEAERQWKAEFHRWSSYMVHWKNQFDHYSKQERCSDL
Experimental: (i) Enzyme Source for AChE
5 Male Rats (Sprague Dawley) weighing approx 250 g were killed by CO2 overdose and cervical dislocation.
The brain was removed and homogenised (9 strokes at 840 rpm with 4 volumes of phosphate buffer pH 7.4+10 mM (EDTA) and centrifuged at 27,000 g for 30 minutes.
The supernatant was discarded and the pellet resuspended in phosphate buffer with 10 mM EDTA+1- Triton X100 (2 ml/g wet weight). The crude homogenate was centrifuged at 27,000 g for 30-40 minutes.
The pellet was discarded and the supernatant was dispensed into 0.5 ml aliquots and stored at -20° C. until required.
Phosphate Buffer (0.1M. pH 7.4)
Made up to 500 ml with distilled H2 O, pH 7.4.
0.5 ml aliquots of brain (enzyme solution) as prepared above were thawed out. 2 ml of phosphate buffer was added to each aliquot. 2 ml of the enzyme solution was incubated with 2 ml PDS for 60 minutes at 0° C. The composition of blank, control and test solutions are given below:
0.9 ml phosphate buffer (0.1 M, pH 7.4)
0.85 ml phosphate buffer (0.1M, pH 7.4)
0.05 ml acetylthiocholine (5.2 mM)
as §4
0.05 ml Acetylthiocholine 5.2 mM
Change in absorbance was measured at 30 second intervals for 3 minutes at […]. The control was taken as 100%. Inhibitor was calculated as a percentage of the control. A graph of Log of inhibitor conc. versus % control was plotted and IC5. values calculated by interpolation.

[4] = not believed to be irreversible in nature; cited from earlier work
[5] = Table 1, form BASE, n = 5, read-out: IC50 NA UPTAKE
[6] = Table 1, form SALT, n = 5, read-out: IC50 NA UPTAKE
[7] = Table 1, form BASE, n = 5, read-out: IC50 5HT UPTAKE
[8] = Table 1, form SALT, n = 5, read-out: IC50 5HT UPTAKE
[9] = Table 1, form SALT, ±SEM, n = 5, read-out: IC50 BChE
[10] = Table 1, form BASE, ±SEM, n = 5, read-out: IC50 AChE
[11] = Table 1, form SALT, ±SEM, n = 5, read-out: IC50 AChE
[12] = Table 3, read-out: NA UPTAKE INHIBITION
[13] = Table 3, read-out: 5-HT UPTAKE INHIBITION

Row | Structure (SMILES) | pIC50 [1, 5] | pIC50 [1, 6] | pIC50 (5-HT (serotonin) uptake; [7]) | pIC50 (5-HT (serotonin) uptake; [8]) | pIC50 [2, 9] | pIC50 [3, 10] | pIC50 [3, 11] | pIC50 ([2]; Table 1, form BASE, ±SEM, n = 5, read-out: IC50 BChE) | NA UPTAKE INHIBITION TACRINE RATIO [1] | pIC50 [1, 12] | 5-HT UPTAKE INHIBITION TACRINE RATIO (5-HT (serotonin) uptake) | pIC50 (5-HT (serotonin) uptake; [13]) | BChE TACRINE RATIO [2] | pIC50 ([2]; Table 2, read-out: BChE IC50) | AChE TACRINE RATIO [3] | pIC50 ([3]; Table 2, read-out: AChE IC50) | side effect [4]
1 | COc1ccc2c(c1)CCCc1c-2nc2ccccc2c1N [Compound 1, 13-Amino-1,2 dihydro-5-methoxy[1H] benz [7] annuleno [5,4-b] quinoline] | 5.44 | 5.74 | 6.15 | 7.70 | 4.46 | 4.16 | 4.76 | – | – | – | – | – | – | – | – | – | –
2 | Nc1c2c(nc3ccccc13)-c1ccccc1CC2 [Compound 3, 7 Amino-5,6-dihydro-benz-[c]-acridine] | 4.92 | 4.88 | 5.34 | 5.70 | 5.42 | 4.43 | 5.11 | – | – | – | – | – | – | – | – | – | –
3 | COc1cccc2c1CCc1c-2nc2ccccc2c1N [Compound 4, 7-Amino-5,6-dihydro-4-methoxybenz-[c]-acridine] | 5.85 | 4.91 | 5.24 | 5.68 | 5.72 | 4.32 | 4.77 | 4.99 | – | – | – | – | – | – | – | – | –
4 | Nc1c2c(nc3ccccc13)-c1ccc(Cl)cc1CC2 [Compound 5, 7-Amino-5,6-dihydro-3-chlorobenz-[c]-acridine] | 5.39 | 5.21 | 4.84 | 5.28 | 5.15 | 3.84 | 4.75 | – | – | – | – | – | – | – | – | – | –
5 | Nc1c2c(nc3ccccc13)-c1ccccc1CCC2 [Compound 6, 8-Amino-6,7-dihydro-5H-benzo-[6, 7] cyclohepta [1,2-b] quinoline] | – | 5.72 | 5.33 | 6.00 | 5.40 | 3.48 | 4.76 | – | – | – | – | – | – | – | – | – | –
6 | Nc1c2c(nc3ccc(F)cc13)CCC2 [Compound 11, 9-Amino-7-fluoro-2,3-dihydro-1H-cyclopenta-[b] quinoline] | – | – | – | – | – | – | – | – | 0.558 | 4.92 | 2.054 | 5.43 | 0.033 | 6.12 | 0.650 | 6.92 | –
7 | Nc1c2c(nc3c(O)cccc13)CCC2 [Compound 12, 9-Amino-5-hydroxy-2,3-dihydro-1H-cyclopenta [b] quinoline] | – | – | – | – | – | – | – | – | 9.571 | 6.15 | 0.524 | 4.84 | 0.050 | 6.30 | 0.078 | 6.00 | –
8 | Nc1c2c(nc3c(F)cccc13)CCC2 [Compound 13, 9-Amino-5-fluoro-2,3-dihydro-1H-cyclopenta-[1,2-b] quinoline] | – | – | – | – | – | – | – | – | 9.571 | 6.15 | 0.181 | 4.38 | 0.093 | 6.57 | 0.269 | 6.54 | –
9 | Nc1c2c(nc3cccc(F)c13)CCC2 [Compound 14, 9-Amino-8-fluoro-2,3-dihydro-1H-cyclopenta-[b] quinoline] | – | – | – | – | – | – | – | – | 2.030 | 5.48 | 0.177 | 4.37 | 0.017 | 5.82 | 1.000 | 7.11 | –
10 | Nc1c2c(nc3cc(F)ccc13)CCC2 [Compound 15, 9-amino-6-fluoro-2,3-dihydro-1H-cyclopenta [b] quinoline] | – | – | – | – | – | – | – | – | 9.571 | 6.15 | 0.345 | 4.66 | 0.610 | 7.39 | 1.219 | 7.19 | –
11 | Nc1c2c(nc3cccc(Cl)c13)CCC2 [Compound 16, 9-Amino-8-chloro-2,3-dihydro-1H-cyclopenta[b]quinoline] | – | – | – | – | – | – | – | – | 3350.000 | 8.70 | 0.195 | 4.41 | 0.047 | 6.28 | 0.557 | 6.85 | –
12 | Nc1c2c(nc3ccc(Cl)cc13)CCC2 [Compound 19, 9-Amino-7-chloro-2,3-dihydro-1H-cyclopenta-[b] quinoline] | – | – | – | – | – | – | – | – | 2.481 | 5.57 | 1.086 | 5.15 | 0.019 | 5.88 | 0.060 | 5.89 | –
13 | Nc1c2c(nc3c(Cl)cccc13)CCC2 [Compound 22, 9-Amino-5-chloro-2,3-dihydro-1H-cyclopenta[b] quinoline] | – | – | – | – | – | – | – | – | 2.161 | 5.51 | 0.073 | 3.98 | 0.002 | 4.84 | 0.022 | 5.46 | –
14 | Nc1c2c(nc3ccccc13)CCC2 [Compound 29, 9-Amino-2,3-dihydro-[1H ]-cyclopenta-[b]-quinoline] | – | – | – | – | – | – | – | – | 11.167 | 6.22 | 0.362 | 4.68 | 0.481 | – | 1.393 | 7.25 | –
15 | Nc1c2c(nc3ccccc13)CCCC2 [TACRINE, reference compound] | – | – | – | – | – | – | – | – | – | 5.17 | – | – | – | – | – | – | liver damage
